Consider one cell line from the supplement of paper PMC10307832.

Common to all, as to assay: relative viability (nuclei count vs DMSO), 5 days (fraction); higher = more cells survive
Compound in the test “IU1-47 + Crizotinib”: CC1=CC(=C(N1C2=CC=C(C=C2)Cl)C)C(=O)CN3CCCCC3 [IU1-47] + C[C@@H](Oc1cc(-c2cnn(C3CCNCC3)c2)cnc1N)c1c(Cl)ccc(F)c1Cl [Crizotinib] (partner 1 µM)
The essentials:
(§1)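 Lung cancer cell lines were pin-tool dosed in 1536-well plates on the day after seeding, with either a lone drug or a fixed anchor-drug dose plus five library-drug doses (not always all listed) in √10 steps. Nuclei were counted on 4× images after 5 days. Relative viability is the ratio of treated-well to vehicle-well nuclei counts, with each value a median of duplicate plates.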

Compound in the test “FG-4592 + Vorinostat”: Cc1nc(C(=O)NCC(=O)O)c(O)c2ccc(Oc3ccccc3)cc12 [FG-4592] + O=C(CCCCCCC(=O)Nc1ccccc1)NO [Vorinostat] (partner 1 µM)
In a few lines:
as §1

Compound in the test “FG-4592 + Alpelisib”: Cc1nc(C(=O)NCC(=O)O)c(O)c2ccc(Oc3ccccc3)cc12 [FG-4592] + Cc1nc(NC(=O)N2CCC[C@H]2C(N)=O)sc1-c1ccnc(C(C)(C)C(F)(F)F)c1 [Alpelisib] (partner 2 µM)
In a few lines: as §1

Compound in the test “IU1-47 + Pemetrexed”: CC1=CC(=C(N1C2=CC=C(C=C2)Cl)C)C(=O)CN3CCCCC3 [IU1-47] + Nc1nc2[nH]cc(CCc3ccc(C(=O)N[C@@H](CCC(=O)O)C(=O)O)cc3)c2c(=O)[nH]1 [Pemetrexed] (partner 0.2 µM)
The essentials: as §1

UMC-11: the relative viability with IU1-47 + Crizotinib (first compound 0.08 µM) was found to be 0.564; with IU1-47 + Crizotinib (first compound 0.253 µM), 0.641; in the test with IU1-47 + Crizotinib (first compound 0.8 µM), 0.476; with IU1-47 + Crizotinib (first compound 2.53 µM), 0.673; with IU1-47 + Crizotinib (first compound 8 µM), 0.574; with FG-4592 + Vorinostat (first compound 0.08 µM), 0.363. Besides, the relative viability in the test with FG-4592 + Vorinostat (first compound 0.253 µM) was determined as 0.333; in the test with FG-4592 + Vorinostat (first compound 0.8 µM) it was 0.361; with FG-4592 + Vorinostat (first compound 2.53 µM), 0.511; in the test with FG-4592 + Vorinostat (first compound 8 µM), 0.332; with FG-4592 + Alpelisib (first compound 0.08 µM), 1.03; with FG-4592 + Alpelisib (first compound 0.253 µM), 0.944. Also, the relative viability with FG-4592 + Alpelisib (first compound 0.8 µM) came out at 1; with FG-4592 + Alpelisib (first compound 2.53 µM), 1.18; with FG-4592 + Alpelisib (first compound 8 µM), 0.998; in the test with IU1-47 + Pemetrexed (first compound 0.08 µM) it was 0.777; in the test with IU1-47 + Pemetrexed (first compound 0.253 µM) it was 0.716; with IU1-47 + Pemetrexed (first compound 0.8 µM), 0.811. Also, the relative viability was found to be 0.903 in the test with IU1-47 + Pemetrexed (first compound 2.53 µM) and 0.796 with IU1-47 + Pemetrexed (first compound 8 µM).
